Assay results taken from US20140107051A1, “ISOFLAVONES FOR TREATING MUCOPOLYSACCHARIDOSES” (INSTYTUT FARMACEUTYCZNY, priority 2005, published 2014).
pIC50: −log10 of the molar value. “Also recorded” adds a separate entry of the source. Where two headings read alike, the source gives them in different places.

Tests used:
[1] = tested on: cultured human skin fibroblasts derived from normal individuals; assay: 35S-sulphate incorporation test of glycosaminoglycans synthesis, normal cells; type: cell-based; conditions: for Inhibition in relation to genistein, first symbol (normal cells) / activity at 30 µM / Relative GAG synthesis (converted to 1 cell), Normal cells: 30 μM; for activity at 30 µM: Homo sapiens, Skin fibroblast, read-out: Relative GAG synthesis (converted to 1 cell), Normal cells; for activity at 30 µM / Relative GAG synthesis (converted to 1 cell), Normal cells: DMSO control = 1
Protocol: (§1) The activity of isoflavones was evaluated by the measure of glycosaminoglycans synthesis in 35S-sulphate incorporation test comprising incubation of the radiolabelled 35S-sulfate into GAGs in cultured human skin fibroblasts derived from normal individuals (control) and patients affected with mucopolysaccharidose (Murata et al., Arch Biochem Biophys 2003; 413: 229-235).
(§2) The negative control was DMSO (diluent for genistein and all derivatives), the positive control—genistein. […] Experiment with each cell line has been repeated twice, and every measurement has been done twice.

[2] = tested on: fibroblasts of patients affected with MPS I; assay: 35S-sulphate incorporation test of glycosaminoglycans synthesis, MPS I cells; type: cell-based, human; conditions: for activity at 30 µM: Homo sapiens, Fibroblast, read-out: Relative GAG synthesis (converted to 1 cell), MPS I; for activity at 30 µM / Relative GAG synthesis (converted to 1 cell), MPS I: DMSO control = 1; for activity at 30 µM / Inhibition in relation to genistein, second symbol (MPS I) / Relative GAG synthesis (converted to 1 cell), MPS I: 30 μM
Protocol: as §1, §2

[3] = tested on: cultured human skin fibroblasts derived from patients affected with mucopolysaccharidose; assay: 35S-sulphate incorporation test of glycosaminoglycans synthesis, different human cell lines / MPS types; type: cell-based; conditions: for influence on GAG synthesis compared with genistein (in words): 30 μM, both cell lines of Table 2
Protocol: as §1, §2

[4] = Proliferation 144 h (Table 4); type: cell-based; conditions: read-out: Proliferation 144 h IC50
[5] = tested on: fibroblasts cells derived from patients affected with different MPSs; assay: GAG level / deposits in cultured fibroblasts of MPS patients; type: cell-based, human
fibroblasts = assay: Electron microscope observation of GAG deposits in fibroblasts; type: cell-based, human; conditions: fibroblasts cultured one week; genistein 10 micromolar
[6] = rat; intravenously administered; cited from earlier work
MPS IIIA fibroblasts = assay: Number of lysosomal structures by electron microscopy, MPS IIIA; type: cell-based, human; conditions: 30 μM
MPS IIIB fibroblasts = assay: Number of lysosomal structures by electron microscopy, MPS IIIB; type: cell-based, human; conditions: 30 μM
[7] = tested on: glycosaminoglycan (GAG) synthesis; assay: GAG synthesis, 35S incorp. (Table 4); type: cell-based
[8] = read-out: Cytotoxicity 24 h LC50, 24 h
[9] = read-out: Cytotoxicity 48 h LC50, 48 h

SMILES | Inhibition in relation to genistein, first symbol (normal cells) [1] | activity at 30 µM [1] [%] | activity at 30 µM [2] [%] | pIC50 [4] | influence on GAG synthesis compared with genistein (in words) [3] | CC50 at 24 h (in vitro) [µM] | CC50 at 48 h (in vitro) [µM] | Number of structures per 100 μm^2 of cellular cross section ± SD, amorphous (MPS IIIA fibroblasts) [per 100 μm^2] | Number of structures per 100 μm^2 of cellular cross section ± SD, complexed (MPS IIIA fibroblasts) [per 100 μm^2] | Number of structures per 100 μm^2 of cellular cross section ± SD, lamellar (MPS IIIA fibroblasts) [per 100 μm^2] | Number of structures per 100 μm^2 of cellular cross section ± SD, total number (MPS IIIA fibroblasts) [per 100 μm^2] | Number of structures per 100 μm^2 of cellular cross section ± SD, amorphous (MPS IIIB fibroblasts) [per 100 μm^2] | Number of structures per 100 μm^2 of cellular cross section ± SD, complexed (MPS IIIB fibroblasts) [per 100 μm^2] | Number of structures per 100 μm^2 of cellular cross section ± SD, lamellar (MPS IIIB fibroblasts) [per 100 μm^2] | Number of structures per 100 μm^2 of cellular cross section ± SD, total number (MPS IIIB fibroblasts) [per 100 μm^2] | Relative GAG synthesis (converted to 1 cell), Normal cells [1] | Relative GAG synthesis (converted to 1 cell), MPS I [2] | GAG synthesis 35S incorp. [7] [%] | CC50 [8] [µM] | further results
O=c1c(-c2ccc(O)cc2)coc2cc(O)cc(O)c12 [Genistein, 4′,5,7-trihydroxy-3-phenylchromen-4-on, reference compound] | 0 | 25 | 51 | 4.77 |  |  |  |  |  |  |  |  |  |  |  |  |  |  |  | level of glycosaminoglycans synthesis (in words) ([1]; fibroblasts from normal individuals, FIG. 1): significant decreasing; level of glycosaminoglycans synthesis (in words) ([2]; fibroblasts from MPS 1 patients, FIG. 1): significant decreasing; glycosaminoglycans synthesis (in words) ([3]; cells from individuals with other types of MPS, FIG. 2, FIG. 3): significantly reduced; glycosaminoglycans synthesis (in words) ([3]; cultured fibroblasts from MPS patients, 10-30 micromoles/l): significant inhibition of glycosaminoglycans synthesis; level of glycosaminoglycans in cells (in words) ([5]; cells of MPS I, MPS II, MPS IIIA and MPS IIIB patients, six days): significantly decreased, reaching after six days a level almost identical with the normal one; genistein concentrations at which decrease of GAG synthesis and reduction of deposits is observed ([5]; cultured fibroblasts): 10 to 20 µmol/L; removal of GAG deposits accumulated in cells (in words) ([5]; few days of cultivation, genistein 10 micromoles/l, FIG. 4): deposits are gradually removed; also recorded: comparable with the activity of recombinant human α-L-iduronidase (Aldurazyme); deposits seen by electron microscope (in words) (fibroblasts): disappearance of deposits; also recorded: decline of the before accumulated glycosaminoglycans; effectiveness of crossing the blood-brain barrier [6]: about 10%
CCCCCCCCCCCCCCCC(=O)Oc1cc(O)c2c(=O)c(-c3ccc(O)cc3)coc2c1 [IFG-018] | 0/0 | 37 | 51 | 4.60 | stronger influence on GAG synthesis than genistein | 41.7 | 23.8 |  |  |  |  |  |  |  |  |  |  |  |  | 
CC(=O)Oc1ccc(-c2coc3cc(OC(C)=O)cc(OC(C)=O)c3c2=O)cc1 [IFG-032] | 0 | 25 | 68 | 4.76 | an activity comparable with genistein, but only for one cell line | > 30 | > 30 | 0.17 ± 0.16 | 0.22 ± 0.11 | 0.14 ± 0.08 | 0.53 ± 0.19 | 0.12 ± 0.08 | 0.10 ± 0.07 | 0.17 ± 0.11 | 0.40 ± 0.20 |  |  |  |  | 
CCC(=O)OCOc1cc(O)c2c(=O)c(-c3ccc(O)cc3)coc2c1 [IFG-036] | 0/0 |  |  | 4.95 | an activity comparable with genistein |  |  | 0.22 ± 0.11 | 0.28 ± 0.16 | 0.19 ± 0.14 | 0.73 ± 0.31 | 0.15 ± 0.18 | 0.12 ± 0.11 | 0.25 ± 0.21 | 0.50 ± 0.34 | 0.27 | 0.49 | 64 ± 21 | > 30 | Inhibition in relation to genistein, second symbol (MPS I) [2]: 0/0; CC50 [9]: > 30 µM
CCCC[N+](CCCC)(CCCC)CCCC.O=C([O-])CCCC(=O)Oc1cc(O)c2c(=O)c(-c3ccc(O)cc3)coc2c1 [IFG-038] |  |  |  | 4.70 | an activity comparable with genistein |  |  | 0.21 ± 0.13 | 0.27 ± 0.13 | 0.32 ± 0.16 | 0.80 ± 0.24 | 0.09 ± 0.09 | 0.10 ± 0.10 | 0.21 ± 0.12 | 0.41 ± 0.18 | 0.74 | 0.74 | 55 ± 13 | > 30 | CC50 [9]: > 30 µM
Cc1ccc(S(=O)(=O)OCCOCCOCCOc2cc(O)c3c(=O)c(-c4ccc(O)cc4)coc3c2)cc1 [IFG-046] | − |  |  |  |  |  |  |  |  |  |  |  |  |  |  | 1.80 | 0.49 | 118 ± 72 | 20.7 | Inhibition in relation to genistein, second symbol (MPS I) [2]: 0
C=CCOc1cc(O)c2c(=O)c(-c3ccc(OC(=O)c4ccccc4OC(C)=O)cc3)coc2c1 [IFG-052] |  | 75 | 85 | 4.91 | an activity comparable with genistein, but only for one cell line | 15.8 | 21.5 |  |  |  |  |  |  |  |  |  |  |  |  | 
CC(C)(C#N)c1cc(COc2ccc(-c3coc4cc(OCc5ccccc5)cc(O)c4c3=O)cc2)cc(C(C)(C)C#N)c1 [IFG-053] | 0/0 | 30 | 52 | 4.28 | an activity comparable with genistein | > 30 | > 30 |  |  |  |  |  |  |  |  |  |  |  |  | 
O=C([O-])CCCC(=O)Oc1ccc(-c2coc3cc(OCc4ccccc4)cc(O)c3c2=O)cc1.[Na+] [IFG-061] | 0/0 |  |  |  |  |  |  |  |  |  |  |  |  |  |  | 0.28 | 0.46 |  | 18.8 | 
CC(C)Oc1ccc(-c2coc3cc(O)cc(O)c3c2=O)cc1 [IFG-066] | 0/0 | 23 | 44 | 4.84 |  | > 30 | > 30 | 0.18 ± 0.19 | 0.16 ± 0.08 | 0.13 ± 0.10 | 0.48 ± 0.17 | 0.08 ± 0.06 | 0.11 ± 0.14 | 0.15 ± 0.10 | 0.34 ± 0.23 |  |  |  |  | 
CCCC[N+](CCCC)(CCCC)CCCC.O=C([O-])COc1cc(O)c2c(=O)c(-c3ccc(O)cc3)coc2c1 [IFG-074, tetrabutylammonium[5-hydroxy-3-(4-hydroxy-phenyl)-4-oxo-4H-chromen-7-yloxy]acetate] |  |  |  | 4.56 |  |  |  |  |  |  |  |  |  |  |  |  |  | 88 ± 39 | 44.1 | CC50 [9]: 32.8 µM
